Test results reported in article PMC5656653, “Evaluation of Ga-DOTA-(D-Asp)n as bone imaging agents: D-aspartic acid peptides as carriers to bone” (Scientific Reports, 2017).
Where a SMILES comes first, the peptide text is derived from it. [ ]: non-standard residue; d: D form. The star is where a group is joined. DOTA = O=C(O)CN1CCN(CC(=O)O)CCN(CC(=O)*)CCN(CC(=O)O)CC1

Assay: Biodistribution experiments in normal mice after i.v. injection
Format: in vivo
Conditions: mouse, in vivo, iv; for tissue uptake dose at 1 h / tissue uptake dose at 3 h / tissue uptake dose at 10 min: male, ddY, total radioactivity, Biodistribution of radioactivity
Protocol: Experiments with animals were conducted in strict accordance with the Guidelines for the Care and Use of Laboratory Animals of Kanazawa University. The animal experimental protocols used were approved by the Committee on Animal Experimentation of Kanazawa University (Permit Number: AP-132633). Biodistribution experiments were performed after intravenous administration of each diluted tracer solution (37–740 kBq/100 μL) to 6-week-old male ddY mice (27–32 g, Japan SLC, Inc., Hamamatsu, Japan). Four or five mice at each time point after the administration of each compound were sacrificed by decapitation at 10, 60, and 180 min post-injection. Tissues of interest were taken and weighed. Complete left femurs were isolated as representative bone samples, radioactivity was determined using gamma counters (AccuFLEX γ ARC-8001 in the case of ^18F, Hitachi, Ltd.), and background counts and physical decay were corrected during counting.

With `O=C(O)C[C@@H](NC(=O)[C@@H](CC(=O)O)NC(=O)[C@@H](CC(=O)O)NC(=O)[C@@H](CC(=O)O)NC(=O)[C@@H](CC(=O)O)NC(=O)CN1CCN(CC(=O)O)CCN(CC(=O)O)CCN(CC(=O)O)CC1)C(=O)O` [^67Ga-DOTA-(D-Asp)5, metal not drawn] ({DOTA}-[dD][dD][dD][dD][dD]-OH) the tissue uptake dose at 1 h (Blood) was 0.27 %ID, the tissue uptake dose at 3 h (Blood) was 0.13 %ID and the tissue uptake dose at 10 min (Bone (Femur)) was 6.78 %ID. The tissue uptake dose at 1 h (Bone (Femur)) was 5.01 %ID, the tissue uptake dose at 3 h (Bone (Femur)) was 2.8 %ID and the tissue uptake dose at 10 min (Brain) was 0.1 %ID. The tissue uptake dose at 1 h (Brain) was 0.02 %ID, the tissue uptake dose at 3 h (Brain) was 0.01 %ID and the tissue uptake dose at 10 min (Heart) was 1.03 %ID. It also gave a tissue uptake dose at 1 h (Heart) of 0.12 %ID, a tissue uptake dose at 3 h (Heart) of 0.06 %ID and a tissue uptake dose at 10 min (Kidney) of 12 %ID. For the same molecule, the tissue uptake dose at 1 h (Kidney) was 6.31 %ID, the tissue uptake dose at 3 h (Kidney) was 1.45 %ID and the tissue uptake dose at 10 min (Large-intestine) was 0.47 %ID. For the same molecule, the tissue uptake dose at 1 h (Large-intestine) was 0.22 %ID, the tissue uptake dose at 3 h (Large-intestine) was 0.22 %ID and the tissue uptake dose at 10 min (Liver) was 0.67 %ID. The tissue uptake dose at 1 h (Liver) was 0.22 %ID, the tissue uptake dose at 3 h (Liver) was 0.14 %ID and the tissue uptake dose at 10 min (Lung) was 2.03 %ID. The tissue uptake dose at 1 h (Lung) was 0.3 %ID, the tissue uptake dose at 3 h (Lung) was 0.09 %ID and the tissue uptake dose at 10 min (Muscle) was 0.68 %ID. For the same molecule, the tissue uptake dose at 1 h (Muscle) was 0.13 %ID, the tissue uptake dose at 3 h (Muscle) was 0.07 %ID and the tissue uptake dose at 10 min (Pancreas) was 0.72 %ID. The tissue uptake dose at 1 h (Pancreas) was 0.25 %ID, the tissue uptake dose at 3 h (Pancreas) was 0.06 %ID and the tissue uptake dose at 10 min (Small-intestine) was 0.55 %ID. It also gave a tissue uptake dose at 1 h (Small-intestine) of 0.23 %ID, a tissue uptake dose at 3 h (Small-intestine) of 0.18 %ID and a tissue uptake dose at 10 min (Spleen) of 0.56 %ID. It also gave a tissue uptake dose at 1 h (Spleen) of 0.16 %ID, a tissue uptake dose at 3 h (Spleen) of 0.11 %ID and a tissue uptake dose at 10 min (Stomach) of 0.32 %ID. For the same molecule, the tissue uptake dose at 1 h (Stomach) was 0.1 %ID, the tissue uptake dose at 3 h (Stomach) was 0.48 %ID and the “Accumulation of radioactivity in bone (in words)” value (“Accumulation of radioactivity” for short) was “moderate accumulation of radioactivity in bone”.

Work on `O=C(O)CC[C@H](NC(=O)[C@H](CCC(=O)O)NC(=O)[C@H](CCC(=O)O)NC(=O)[C@H](CCC(=O)O)NC(=O)[C@H](CCC(=O)O)NC(=O)[C@H](CCC(=O)O)NC(=O)[C@H](CCC(=O)O)NC(=O)[C@H](CCC(=O)O)NC(=O)[C@H](CCC(=O)O)NC(=O)[C@H](CCC(=O)O)NC(=O)[C@H](CCC(=O)O)NC(=O)[C@H](CCC(=O)O)NC(=O)[C@H](CCC(=O)O)NC(=O)[C@H](CCC(=O)O)NC(=O)CN1CCN(CC(=O)O)CCN(CC(=O)O)CCN(CC(=O)O)CC1)C(=O)O` [^67Ga-DOTA-(L-Glu)14, metal not drawn] yielded a tissue uptake dose at 10 min (Blood) of 1.85 %ID, a tissue uptake dose at 1 h (Blood) of 0.12 %ID and a tissue uptake dose at 3 h (Blood) of 0.05 %ID. The tissue uptake dose at 10 min (Bone (Femur)) was 9.81 %ID, the tissue uptake dose at 1 h (Bone (Femur)) was 11.1 %ID and the tissue uptake dose at 3 h (Bone (Femur)) was 10.9 %ID. It also gave a tissue uptake dose at 10 min (Brain) of 0.05 %ID, a tissue uptake dose at 1 h (Brain) of 0.01 %ID and a tissue uptake dose at 3 h (Brain) of 0.03 %ID. The tissue uptake dose at 10 min (Heart) was 0.67 %ID, the tissue uptake dose at 1 h (Heart) was 0.1 %ID and the tissue uptake dose at 3 h (Heart) was 0.06 %ID. For the same molecule, the tissue uptake dose at 10 min (Kidney) was 22.1 %ID, the tissue uptake dose at 1 h (Kidney) was 26.4 %ID and the tissue uptake dose at 3 h (Kidney) was 25.1 %ID. It also gave a tissue uptake dose at 10 min (Large-intestine) of 0.37 %ID, a tissue uptake dose at 1 h (Large-intestine) of 0.07 %ID and a tissue uptake dose at 3 h (Large-intestine) of 0.23 %ID. The tissue uptake dose at 10 min (Liver) was 0.47 %ID, the tissue uptake dose at 1 h (Liver) was 0.13 %ID and the tissue uptake dose at 3 h (Liver) was 0.14 %ID. For the same molecule, the tissue uptake dose at 10 min (Lung) was 1.57 %ID, the tissue uptake dose at 1 h (Lung) was 0.13 %ID and the tissue uptake dose at 3 h (Lung) was 0.06 %ID. The tissue uptake dose at 10 min (Muscle) was 0.63 %ID, the tissue uptake dose at 1 h (Muscle) was 0.1 %ID and the tissue uptake dose at 3 h (Muscle) was 0.3 %ID. The tissue uptake dose at 10 min (Pancreas) was 0.59 %ID, the tissue uptake dose at 1 h (Pancreas) was 0.13 %ID and the tissue uptake dose at 3 h (Pancreas) was 0.08 %ID. It also gave a tissue uptake dose at 10 min (Small-intestine) of 0.5 %ID, a tissue uptake dose at 1 h (Small-intestine) of 0.13 %ID and a tissue uptake dose at 3 h (Small-intestine) of 0.15 %ID. The tissue uptake dose at 10 min (Spleen) was 0.44 %ID, the tissue uptake dose at 1 h (Spleen) was 0.1 %ID and the tissue uptake dose at 3 h (Spleen) was 0.11 %ID. For the same molecule, the tissue uptake dose at 10 min (Stomach) was 0.22 %ID, the tissue uptake dose at 1 h (Stomach) was 0.07 %ID and the tissue uptake dose at 3 h (Stomach) was 0.07 %ID. The “Accumulation of radioactivity” value was “high accumulation and retention of radioactivity in bone”, the “Clearance from the blood (in words)” value was “rapid clearance from the blood” and the “Radioactivity in the kidneys (in words)” value was “retained”.

In the case of `O=C(O)C[C@@H](NC(=O)[C@@H](CC(=O)O)NC(=O)[C@@H](CC(=O)O)NC(=O)[C@@H](CC(=O)O)NC(=O)[C@@H](CC(=O)O)NC(=O)[C@@H](CC(=O)O)NC(=O)[C@@H](CC(=O)O)NC(=O)[C@@H](CC(=O)O)NC(=O)CN1CCN(CC(=O)O)CCN(CC(=O)O)CCN(CC(=O)O)CC1)C(=O)O` [^67Ga-DOTA-(D-Asp)8, metal not drawn] ({DOTA}-[dD][dD][dD][dD][dD][dD][dD][dD]-OH), the tissue uptake dose at 10 min (Blood) is reported as 1.94 %ID, the tissue uptake dose at 1 h (Blood) is reported as 0.33 %ID and the tissue uptake dose at 3 h (Blood) is reported as 0.13 %ID. It also gave a tissue uptake dose at 10 min (Bone (Femur)) of 9.86 %ID, a tissue uptake dose at 1 h (Bone (Femur)) of 11.6 %ID and a tissue uptake dose at 3 h (Bone (Femur)) of 12.5 %ID. For the same molecule, the tissue uptake dose at 10 min (Brain) was 0.05 %ID, the tissue uptake dose at 1 h (Brain) was 0.01 %ID and the tissue uptake dose at 3 h (Brain) was 0.01 %ID. The tissue uptake dose at 10 min (Heart) was 0.63 %ID, the tissue uptake dose at 1 h (Heart) was 0.14 %ID and the tissue uptake dose at 3 h (Heart) was 0.05 %ID. The tissue uptake dose at 10 min (Kidney) was 12.8 %ID, the tissue uptake dose at 1 h (Kidney) was 2.49 %ID and the tissue uptake dose at 3 h (Kidney) was 1.23 %ID. For the same molecule, the tissue uptake dose at 10 min (Large-intestine) was 0.26 %ID, the tissue uptake dose at 1 h (Large-intestine) was 0.05 %ID and the tissue uptake dose at 3 h (Large-intestine) was 0.08 %ID. For the same molecule, the tissue uptake dose at 10 min (Liver) was 0.46 %ID, the tissue uptake dose at 1 h (Liver) was 0.14 %ID and the tissue uptake dose at 3 h (Liver) was 0.11 %ID. For the same molecule, the tissue uptake dose at 10 min (Lung) was 1.34 %ID, the tissue uptake dose at 1 h (Lung) was 0.26 %ID and the tissue uptake dose at 3 h (Lung) was 0.1 %ID. For the same molecule, the tissue uptake dose at 10 min (Muscle) was 0.57 %ID, the tissue uptake dose at 1 h (Muscle) was 0.15 %ID and the tissue uptake dose at 3 h (Muscle) was 0.14 %ID. The tissue uptake dose at 10 min (Pancreas) was 0.57 %ID, the tissue uptake dose at 1 h (Pancreas) was 0.11 %ID and the tissue uptake dose at 3 h (Pancreas) was 0.08 %ID. It also gave a tissue uptake dose at 10 min (Small-intestine) of 0.39 %ID, a tissue uptake dose at 1 h (Small-intestine) of 0.13 %ID and a tissue uptake dose at 3 h (Small-intestine) of 0.1 %ID. The tissue uptake dose at 10 min (Spleen) was 0.42 %ID, the tissue uptake dose at 1 h (Spleen) was 0.16 %ID and the tissue uptake dose at 3 h (Spleen) was 0.09 %ID. For the same molecule, the tissue uptake dose at 10 min (Stomach) was 0.34 %ID, the tissue uptake dose at 1 h (Stomach) was 0.04 %ID and the tissue uptake dose at 3 h (Stomach) was 0.1 %ID. The “Accumulation of radioactivity” value was “high accumulation and retention of radioactivity in bone”.
